Holding throughout (test): Kinase selectivity, P33-radiolabeled assay
Common to all, as to format: biochemical
Common to all, as to conditions: 10 μM ATP

Test [1] deals with T1, TNK1 (Homo sapiens, UniProt Q13470).
T1 construct: purchased Reaction Biology Corp
T1 sequence (Q13470 1-666): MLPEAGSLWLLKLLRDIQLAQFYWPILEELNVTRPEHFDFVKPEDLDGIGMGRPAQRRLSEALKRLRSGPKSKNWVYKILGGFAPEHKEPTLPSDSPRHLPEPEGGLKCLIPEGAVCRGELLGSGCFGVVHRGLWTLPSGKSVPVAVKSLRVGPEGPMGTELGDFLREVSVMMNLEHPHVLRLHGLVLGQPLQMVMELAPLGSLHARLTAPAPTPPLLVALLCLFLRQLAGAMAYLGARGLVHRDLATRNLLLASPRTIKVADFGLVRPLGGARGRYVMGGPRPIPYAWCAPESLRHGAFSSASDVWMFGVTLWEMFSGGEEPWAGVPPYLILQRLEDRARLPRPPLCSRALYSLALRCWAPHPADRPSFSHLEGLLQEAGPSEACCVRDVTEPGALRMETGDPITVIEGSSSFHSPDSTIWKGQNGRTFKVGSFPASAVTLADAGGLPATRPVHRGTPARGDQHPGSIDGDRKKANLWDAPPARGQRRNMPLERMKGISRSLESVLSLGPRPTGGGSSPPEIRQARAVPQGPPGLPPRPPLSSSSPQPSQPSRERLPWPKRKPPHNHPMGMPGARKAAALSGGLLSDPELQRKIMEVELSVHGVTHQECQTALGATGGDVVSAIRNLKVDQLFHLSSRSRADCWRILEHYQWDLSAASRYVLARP
The method in brief:
(§1)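 Duplicate single-concentration testing used 10 μM compound. The ATP concentration was also 10 μM.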

The target in test [2] is T2, HIPK4 (Homo sapiens, UniProt Q8NE63).
T2 construct: purchased Reaction Biology Corp
T2 sequence (Q8NE63 1-616): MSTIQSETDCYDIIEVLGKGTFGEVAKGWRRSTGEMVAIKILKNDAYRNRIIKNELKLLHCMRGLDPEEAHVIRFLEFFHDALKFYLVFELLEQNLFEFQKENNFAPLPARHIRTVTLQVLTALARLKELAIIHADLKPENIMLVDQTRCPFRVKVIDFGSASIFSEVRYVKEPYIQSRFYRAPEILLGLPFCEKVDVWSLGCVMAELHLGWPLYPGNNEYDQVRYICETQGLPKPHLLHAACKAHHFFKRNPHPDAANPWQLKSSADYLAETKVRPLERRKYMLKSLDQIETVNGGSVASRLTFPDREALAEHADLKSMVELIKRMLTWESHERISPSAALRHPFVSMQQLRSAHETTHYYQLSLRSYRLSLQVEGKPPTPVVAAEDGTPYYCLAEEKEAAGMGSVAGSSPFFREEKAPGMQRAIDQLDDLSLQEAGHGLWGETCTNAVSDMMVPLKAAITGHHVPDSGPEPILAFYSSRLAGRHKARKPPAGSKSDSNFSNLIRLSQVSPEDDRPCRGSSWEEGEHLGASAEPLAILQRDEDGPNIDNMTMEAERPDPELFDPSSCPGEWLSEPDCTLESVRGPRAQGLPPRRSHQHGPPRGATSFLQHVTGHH
The method, boiled down: as §1

The target of test [3] is T3, DAPK1 (Homo sapiens, UniProt P53355).
T3 construct: purchased Reaction Biology Corp
The method in brief:
as §1

For test [4], the target named is T4, BLK (Homo sapiens, UniProt P51451).
T4 construct: purchased Reaction Biology Corp
The method, boiled down:
as §1

Test [5] addresses T5, PKN1/PRK1 (Homo sapiens, UniProt Q16512).
T5 construct: purchased Reaction Biology Corp
The method in brief:
as §1

In test [6] the target is T6, ALK2/ACVR1 (Homo sapiens, UniProt Q04771).
T6 construct: purchased Reaction Biology Corp
T6 sequence (Q04771 21-509): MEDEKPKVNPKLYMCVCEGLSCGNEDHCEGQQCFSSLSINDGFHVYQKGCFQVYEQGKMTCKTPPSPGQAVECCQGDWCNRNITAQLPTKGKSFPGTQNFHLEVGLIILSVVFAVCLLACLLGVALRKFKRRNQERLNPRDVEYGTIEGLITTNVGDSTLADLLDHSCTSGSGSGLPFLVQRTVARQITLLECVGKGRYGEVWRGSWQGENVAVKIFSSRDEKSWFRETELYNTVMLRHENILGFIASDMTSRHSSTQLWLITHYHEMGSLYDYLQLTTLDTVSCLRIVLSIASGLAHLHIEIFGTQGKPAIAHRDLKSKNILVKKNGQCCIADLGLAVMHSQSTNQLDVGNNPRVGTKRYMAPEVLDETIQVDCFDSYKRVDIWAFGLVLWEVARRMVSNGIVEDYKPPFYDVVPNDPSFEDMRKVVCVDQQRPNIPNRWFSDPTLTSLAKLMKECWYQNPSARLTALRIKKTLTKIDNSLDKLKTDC
The method in brief: as §1

Test [7] concerns the target T7, PKCa (Homo sapiens, UniProt P17252).
T7 construct: purchased Reaction Biology Corp
The method in brief: as §1

[8] abbreviates: read-out: % Enzyme Activity (relative to DMSO controls) AVG.
Where [9] appears, read: read-out: % Enzyme Activity (relative to DMSO controls) Data 1.
[10] abbreviates: read-out: % Enzyme Activity (relative to DMSO controls) Data 2.

Molecules are shown by their SMILES. Where two headings read alike, the source gives them in different places.

T4 sequence (P51451 whole entry): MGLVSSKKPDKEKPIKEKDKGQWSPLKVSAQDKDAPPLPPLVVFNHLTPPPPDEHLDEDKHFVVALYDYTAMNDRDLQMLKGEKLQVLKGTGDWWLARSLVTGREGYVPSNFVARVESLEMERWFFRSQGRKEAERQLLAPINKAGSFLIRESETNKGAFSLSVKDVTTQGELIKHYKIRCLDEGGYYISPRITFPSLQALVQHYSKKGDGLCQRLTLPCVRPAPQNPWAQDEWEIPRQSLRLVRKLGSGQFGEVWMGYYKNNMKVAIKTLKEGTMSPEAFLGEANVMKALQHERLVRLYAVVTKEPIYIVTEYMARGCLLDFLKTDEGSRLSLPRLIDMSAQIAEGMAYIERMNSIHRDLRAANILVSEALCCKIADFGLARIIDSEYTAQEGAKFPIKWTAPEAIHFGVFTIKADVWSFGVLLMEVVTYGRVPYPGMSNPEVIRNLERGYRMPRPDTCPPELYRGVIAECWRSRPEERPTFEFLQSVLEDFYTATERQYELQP
T5 sequence (Q16512 whole entry): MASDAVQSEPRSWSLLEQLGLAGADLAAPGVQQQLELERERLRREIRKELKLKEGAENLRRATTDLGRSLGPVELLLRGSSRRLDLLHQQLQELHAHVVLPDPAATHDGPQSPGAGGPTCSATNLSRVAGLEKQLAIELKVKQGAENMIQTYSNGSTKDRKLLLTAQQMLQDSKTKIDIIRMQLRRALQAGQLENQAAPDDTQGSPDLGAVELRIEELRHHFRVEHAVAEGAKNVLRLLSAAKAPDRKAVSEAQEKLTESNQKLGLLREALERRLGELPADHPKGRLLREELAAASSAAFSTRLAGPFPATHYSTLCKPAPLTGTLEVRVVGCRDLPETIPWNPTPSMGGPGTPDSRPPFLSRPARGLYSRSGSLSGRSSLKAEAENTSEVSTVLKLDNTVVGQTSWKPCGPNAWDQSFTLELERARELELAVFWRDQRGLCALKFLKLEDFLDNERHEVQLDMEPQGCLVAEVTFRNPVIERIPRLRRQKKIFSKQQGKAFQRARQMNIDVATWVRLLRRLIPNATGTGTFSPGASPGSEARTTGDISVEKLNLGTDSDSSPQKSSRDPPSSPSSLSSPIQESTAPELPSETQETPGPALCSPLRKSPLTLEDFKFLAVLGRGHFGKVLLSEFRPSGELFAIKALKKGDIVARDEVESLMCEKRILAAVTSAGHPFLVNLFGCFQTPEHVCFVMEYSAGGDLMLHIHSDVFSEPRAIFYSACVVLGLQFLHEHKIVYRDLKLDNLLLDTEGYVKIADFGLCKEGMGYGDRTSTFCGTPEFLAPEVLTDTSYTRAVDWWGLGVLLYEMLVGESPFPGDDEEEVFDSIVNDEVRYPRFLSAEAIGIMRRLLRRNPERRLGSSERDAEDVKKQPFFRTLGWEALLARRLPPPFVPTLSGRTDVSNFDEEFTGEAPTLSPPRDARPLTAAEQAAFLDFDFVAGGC
T3 sequence (P53355 whole entry): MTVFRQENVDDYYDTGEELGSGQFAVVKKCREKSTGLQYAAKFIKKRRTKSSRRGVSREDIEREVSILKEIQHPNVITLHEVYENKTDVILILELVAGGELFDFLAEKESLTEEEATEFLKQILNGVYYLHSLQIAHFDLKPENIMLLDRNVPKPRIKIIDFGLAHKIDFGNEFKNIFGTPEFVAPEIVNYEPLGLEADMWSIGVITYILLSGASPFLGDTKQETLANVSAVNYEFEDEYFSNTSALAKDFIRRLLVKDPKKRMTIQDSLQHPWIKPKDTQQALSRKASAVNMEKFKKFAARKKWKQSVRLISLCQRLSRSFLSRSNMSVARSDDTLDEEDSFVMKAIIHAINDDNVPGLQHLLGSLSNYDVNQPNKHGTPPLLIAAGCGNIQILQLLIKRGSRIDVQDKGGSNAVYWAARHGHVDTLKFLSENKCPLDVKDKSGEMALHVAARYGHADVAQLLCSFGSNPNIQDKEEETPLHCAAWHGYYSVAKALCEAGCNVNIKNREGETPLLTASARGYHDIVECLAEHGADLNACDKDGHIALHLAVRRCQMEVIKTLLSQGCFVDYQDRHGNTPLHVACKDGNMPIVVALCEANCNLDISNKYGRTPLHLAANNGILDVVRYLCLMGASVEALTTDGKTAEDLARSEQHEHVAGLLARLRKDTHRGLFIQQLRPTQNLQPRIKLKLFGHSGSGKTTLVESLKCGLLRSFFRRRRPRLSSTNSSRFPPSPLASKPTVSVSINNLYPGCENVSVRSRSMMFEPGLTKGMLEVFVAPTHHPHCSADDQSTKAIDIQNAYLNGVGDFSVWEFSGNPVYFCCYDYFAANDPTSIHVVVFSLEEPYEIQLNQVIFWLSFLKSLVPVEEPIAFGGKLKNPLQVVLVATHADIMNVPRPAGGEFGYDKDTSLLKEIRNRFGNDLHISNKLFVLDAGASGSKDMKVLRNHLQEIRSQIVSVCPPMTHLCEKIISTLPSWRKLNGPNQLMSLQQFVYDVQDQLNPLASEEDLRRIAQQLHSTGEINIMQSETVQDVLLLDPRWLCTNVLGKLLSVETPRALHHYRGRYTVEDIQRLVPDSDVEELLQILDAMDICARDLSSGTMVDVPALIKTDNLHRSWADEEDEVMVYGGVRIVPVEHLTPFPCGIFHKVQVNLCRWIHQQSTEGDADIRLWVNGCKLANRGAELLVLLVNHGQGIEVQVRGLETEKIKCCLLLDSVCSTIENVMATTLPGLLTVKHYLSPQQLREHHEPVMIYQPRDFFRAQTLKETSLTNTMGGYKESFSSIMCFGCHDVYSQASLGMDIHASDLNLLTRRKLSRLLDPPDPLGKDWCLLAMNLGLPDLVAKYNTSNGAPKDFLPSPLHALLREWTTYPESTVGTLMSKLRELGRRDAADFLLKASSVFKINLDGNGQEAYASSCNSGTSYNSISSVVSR

For `CC(C)(C)C(=O)N1N=CC[C@H]1c1ccccc1` [GSK′963], the remaining activity at 10 µM in test [1] (setting [8]) turned out to be 98.8%; in test [1] (setting [9]), 100%; in test [1] (setting [10]) it was 97.2%; in test [2] (setting [8]), 99.5%; in test [2] (setting [9]), 96.7%; in test [2] (setting [10]), 102%. Further, the remaining activity at 10 µM in test [3] (setting [8]) stood at 70.8%; in test [3] (setting [9]), 72.5%; in test [3] (setting [10]) it was 69.2%; in test [4] (setting [8]) it was 113%; in test [4] (setting [9]), 112%; in test [4] (setting [10]), 113%. Moreover, the remaining activity at 10 µM came to 103% in test [5] (setting [8]); 104% in test [5] (setting [9]); 102% in test [5] (setting [10]); 98.1% in test [6] (setting [8]); 94% in test [6] (setting [9]); 102% in test [6] (setting [10]). For the same compound, the remaining activity at 10 µM in test [7] (setting [8]) was found to be 96.9%; in test [7] (setting [9]) it was 95.7%; in test [7] (setting [10]), 98%.

(Values after PMC4979471 (Cell Death Discovery, 2015).)
